Assays:
[1] = Metabolic stability in human liver microsome assessed as half life measured upto 60 mins in presence of NADPH by LC-MS/MS analysis; type: ADME; settings: liver microsomes
[2] = AUC in Sprague-Dawley rat at 3 mg/kg, po measured upto 24 hrs by LC/MS-MS analysis; type: ADME, organism-based; settings: in vivo
[3] = Metabolic stability in dog liver microsome assessed as half life measured upto 60 mins in presence of NADPH by LC-MS/MS analysis; type: ADME, Canis lupus familiaris; settings: liver microsomes
[4] = Metabolic stability in dog plasma assessed as half life measured upto 120 mins by LC-MS/MS analysis; type: ADME, cell-free, Canis lupus familiaris
[5] = Plasma protein binding in monkey by LC-MS analysis; type: ADME, cell-free, Macaca mulatta; settings: rhesus monkey, read-out: PPB (converted)
Cytochrome P450 2C9 = Cytochrome P450 2C9 (Homo sapiens, UniProt P11712); experiment: Inhibition of CYP2C9 (unknown origin) preincubated with compound for 5 mins followed by NADPH addition and measured after 10 mins by LC-MS/MS analysis; type: ADME
Cytochrome P450 2C9, sequence (P11712 whole entry): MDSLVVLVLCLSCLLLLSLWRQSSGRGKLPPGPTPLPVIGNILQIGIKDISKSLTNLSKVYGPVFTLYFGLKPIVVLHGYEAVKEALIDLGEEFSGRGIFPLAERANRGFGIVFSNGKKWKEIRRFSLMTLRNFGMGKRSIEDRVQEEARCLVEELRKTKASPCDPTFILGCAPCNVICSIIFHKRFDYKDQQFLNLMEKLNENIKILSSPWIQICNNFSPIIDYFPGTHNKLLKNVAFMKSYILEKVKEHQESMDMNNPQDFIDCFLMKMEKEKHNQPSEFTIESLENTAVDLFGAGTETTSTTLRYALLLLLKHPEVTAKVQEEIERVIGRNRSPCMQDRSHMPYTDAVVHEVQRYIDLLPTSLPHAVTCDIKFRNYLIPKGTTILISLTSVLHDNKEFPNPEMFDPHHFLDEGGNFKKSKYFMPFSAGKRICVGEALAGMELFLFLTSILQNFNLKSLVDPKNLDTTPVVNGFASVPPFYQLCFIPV

Cytochrome P450 2D6 = Cytochrome P450 2D6 (Homo sapiens, UniProt P10635); experiment: Inhibition of CYP2D6 (unknown origin) preincubated with compound for 5 mins followed by NADPH addition and measured after 20 mins by LC-MS/MS analysis; type: ADME
Cytochrome P450 2D6, sequence (P10635 whole entry): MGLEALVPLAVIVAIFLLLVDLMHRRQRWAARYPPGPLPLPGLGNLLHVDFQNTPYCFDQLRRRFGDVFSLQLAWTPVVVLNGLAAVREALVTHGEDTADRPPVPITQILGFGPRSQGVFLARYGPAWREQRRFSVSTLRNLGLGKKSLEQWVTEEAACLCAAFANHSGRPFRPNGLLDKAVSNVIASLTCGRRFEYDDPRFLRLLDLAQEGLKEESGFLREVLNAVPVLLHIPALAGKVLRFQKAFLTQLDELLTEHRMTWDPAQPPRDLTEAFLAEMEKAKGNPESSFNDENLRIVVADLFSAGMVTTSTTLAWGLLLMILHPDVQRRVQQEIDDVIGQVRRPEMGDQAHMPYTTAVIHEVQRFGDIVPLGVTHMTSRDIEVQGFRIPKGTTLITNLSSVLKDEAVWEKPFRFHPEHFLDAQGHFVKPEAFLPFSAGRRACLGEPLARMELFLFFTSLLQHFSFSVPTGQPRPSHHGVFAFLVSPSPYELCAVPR

[6] = Drug distribution in SCID mouse plasma at 0.3 mg/kg, po measured at 1 hr by LC-MS/MS analysis; type: ADME, organism-based
[7] = Drug distribution in SCID mouse plasma at 1 mg/kg, po measured at 1 hr by LC-MS/MS analysis; type: ADME, organism-based
[8] = Drug distribution in SCID mouse plasma at 1 mg/kg, po measured at 24 hrs by LC-MS/MS analysis; type: ADME, organism-based
[9] = Drug distribution in SCID mouse plasma at 3 mg/kg, po measured at 1 hr by LC-MS/MS analysis; type: ADME, organism-based
[10] = Drug distribution in SCID mouse plasma at 3 mg/kg, po measured at 6 hrs by LC-MS/MS analysis; type: ADME, organism-based
[11] = Drug distribution in SCID mouse plasma at 3 mg/kg, po measured at 24 hrs by LC-MS/MS analysis; type: ADME, organism-based
[12] = Drug distribution in SCID mouse tumor at 0.3 mg/kg, po measured at 1 hr by LC-MS/MS analysis; type: ADME, organism-based, Neoplasm; settings: read-out: Ct
[13] = Drug distribution in SCID mouse liver at 3 mg/kg, po measured at 1 hr by LC-MS/MS analysis; type: ADME, organism-based; settings: read-out: Ct
[14] = Drug distribution in SCID mouse spleen at 1 mg/kg, po measured at 1 hr by LC-MS/MS analysis; type: ADME, organism-based; settings: read-out: Ct
[15] = Drug distribution in SCID mouse spleen at 3 mg/kg, po measured at 6 hrs by LC-MS/MS analysis; type: ADME, organism-based; settings: read-out: Ct
[16] = Drug concentration in SCID mouse plasma at 1 mg/kg, po measured at 24 hrs by LC-MS/MS analysis; type: ADME, organism-based
VCaP = experiment: Antitumor activity against human VCaP cells xenografted in SCID mouse assessed as tumor growth inhibition at 1 mg/kg, po administered twice a week for 4 week; type: functional; settings: 672 h, time 4 weeks, read-out: TGI
[17] = Toxicity in SCID mouse xenografted with human VCaP cells assessed as loss of body weight at 1 to 3 mg/kg, po administered daily 5 times a week for 4 weeks; type: organism-based; settings: in vivo, 672 h, dose 1-3 mg/kg
[18] = Toxicity in SCID mouse xenografted with human 22Rv1 cells assessed as loss of body weight at 0.3 to 3 mg/kg, po administered upto 3 weeks; type: organism-based, CWR22R; settings: in vivo, 504 h, dose 0.3-3 mg/kg
[19] = Drug distribution in Sprague-Dawley rat kidney at 3 mg/kg, po measured at 6 hrs by LC-MS/MS analysis; type: ADME, organism-based; settings: read-out: Ct
[20] = Drug distribution in Sprague-Dawley rat kidney at 10 mg/kg, po measured at 1 hr by LC-MS/MS analysis; type: ADME, organism-based; settings: read-out: Ct
[21] = Drug distribution in Sprague-Dawley rat liver at 3 mg/kg, po measured at 1 hr by LC-MS/MS analysis; type: ADME, organism-based; settings: read-out: Ct
[22] = Drug distribution in Sprague-Dawley rat liver at 10 mg/kg, po measured at 6 hrs by LC-MS/MS analysis; type: ADME, organism-based; settings: read-out: Ct
[23] = Drug distribution in Sprague-Dawley rat spleen at 3 mg/kg, po measured at 6 hrs by LC-MS/MS analysis; type: ADME, organism-based; settings: read-out: Ct
[24] = Drug distribution in Sprague-Dawley rat spleen at 10 mg/kg, po measured at 24 hrs by LC-MS/MS analysis; type: ADME, organism-based; settings: read-out: Ct
[25] = Toxicity in immune-competent Sprague-Dawley rat assessed as change in white blood cells count at 1 to 10 mg/kg, po administered twice a week for 5 weeks; type: organism-based; settings: in vivo, 840 h, dose 1-10 mg/kg
[26] = Toxicity in immune-competent Sprague-Dawley rat assessed as change in neutrophil at 1 to 10 mg/kg, po administered twice a week for 5 weeks; type: organism-based; settings: in vivo, 840 h, dose 1-10 mg/kg
[27] = Toxicity in immune-competent Sprague-Dawley rat assessed as change in lymphocyte at 1 to 10 mg/kg, po administered twice a week for 5 weeks; type: organism-based; settings: in vivo, 840 h, dose 1-10 mg/kg
[28] = Toxicity in immune-competent Sprague-Dawley rat assessed as change in creatinine level at 1 to 10 mg/kg, po administered twice a week for 5 weeks; type: organism-based; settings: in vivo, 840 h, dose 1-10 mg/kg
[29] = Toxicity in immune-competent Sprague-Dawley rat assessed as change in albumin level at 1 to 10 mg/kg, po administered twice a week for 5 weeks; type: organism-based; settings: in vivo, 840 h, dose 1-10 mg/kg

SMILES: CC(=O)N1CCc2c(c(N3CCCc4cc(-c5cnn(C)c5)c(C(F)F)cc43)nn2[C@H]2CC[C@H](CN3Cc4cc5c(cc4C3)C(=O)N(C3CCC(=O)NC3=O)C5=O)CC2)C1 (some centres not stated)
- half-life [1]: 48 min
- AUC at 24 h [2]: 937 ng·h/mL
- half-life [3]: 49 min
- half-life [4]: 78 min
- fraction unbound [5]: 0.009
- IC50 (Cytochrome P450 2C9): > 10 µM
- IC50 (Cytochrome P450 2D6): > 10 µM
- concentration at 1 h [6]: 35.2 ng/mL
- concentration at 1 h [7]: 212 ng/mL
- concentration at 24 h [8]: 3.3 ng/mL
- concentration at 1 h [9]: 747 ng/mL
- concentration at 6 h [10]: 763 ng/mL
- concentration at 24 h [11]: 12.7 ng/mL
- concentration at 1 h [12]: 27.8 ng/g
- concentration at 1 h [13]: 3300 ng/mL
- concentration at 1 h [14]: 146 ng/mL
- concentration at 6 h [15]: 738 ng/mL
- concentration at 24 h [16]: 2.8 ng/mL
- inhibition in vivo at 1 mg/kg (VCaP): 81%
- Activity [17]: > 8%
- Activity [18]: Non-Toxic
- concentration at 6 h [19]: 59.2 ng/g
- concentration at 1 h [20]: 1170 ng/g
- concentration at 1 h [21]: 978 ng/g
- concentration at 6 h [22]: 541 ng/g
- concentration at 6 h [23]: 112 ng/g
- concentration at 24 h [24]: 12.6 ng/g
- Activity [25]: Non-Toxic
- Activity [26]: Non-Toxic
- Activity [27]: Non-Toxic
- Activity [28]: Non-Toxic
- Activity [29]: Non-Toxic

— ChEMBL document CHEMBL5543112, “Discovery of CBPD-268 as an Exceptionally Potent and Orally Efficacious CBP/p300 PROTAC Degrader Capable of Achieving Tumor Regression” (J Med Chem, 2024)
